# Data reported in patent publication US20260297101A1 (AbbVie Inc., priority 2015, published 2026).
# Legend:
# [1] = Multiple-dose escalation pharmacokinetics in healthy subjects (Study 2-Part 1); conditions: 24 mg BID IR, Day 14, from Cmax to Ctrough ratio, harmonic mean ± pseudo-SD, 20160 min
# Procedure: Both evaluations followed randomized, double-blind, placebo-controlled designs.
# Study drug was administered approximately 30 minutes after a standard breakfast (in the morning) or a snack (in the evening). […] Subjects were confined to the study site and supervised for approximately 18 days.
# Samples quantified below the LLOQ were reported as zero.
# Renal clearance (CLr) was calculated as Au, 0-12/AUC0-12 at steady state.
# Statistical analyses were performed using SAS software (Version 9.3; SAS institute Inc., Cary, NC, USA).
# clinical = conditions: human, in vivo, po, functional half-life (t1/2), BID IR oral solution
# Procedure: (§1) Part 1 was a multiple-dose, open-label, multiple-cohort study. Two sequential multiple-ascending dose levels (Low Dose and High Dose levels) were evaluated in the 12 to <18 years age group (Group 1), and one dose level (Low Dose) was evaluated in the two younger age groups (Group 2: 6 to <12 years, and Group 3: 2 to <6 years). Low Dose and High Dose cohorts in age group 1 enrolled 9 subjects each.
# (§2) The study enrolled at least 10 subjects below 30 kg. Recruitment of subjects was conducted through a staggered approach based on age. […] Part 3 was an additional safety cohort. […] Part 3 was open to age groups in which Part 1 enrollment was completed. […] Doses were adjusted during the study for any of the body weight categories after review of results from the subjects who completed Study Part 1.
# (§3) In Part 1, the dose was administered according to three body weight categories. Subjects were categorized based on age group, and the dose administered for seven consecutive days will be based on three different body weight categories per dose level shown in Table 29.
# (§4) Patients (N=51) diagnosed with pcJIA were enrolled into one of four groups in an open-label, multiple-dose study (Group 1, 12 to <18 years, low dose; Group 2, 12 to <18 years, high dose; Group 3, 6 to <12 years, low dose; Group 4, 2 to <6 years, low dose). […]
# [2] = QD ER tablet
# Procedure: as §1, §2, §3, §4
# [3] = Solubility of upadacitinib in different aqueous media at 37 °C; conditions: low pH
SMILES,t1/2F (functional half-life) [1],half-life (clinical),time to maximum upadacitinib concentration (Tmax) [2],solubility [3]
"CC[C@@H]1CN(C(=O)NCC(F)(F)F)C[C@@H]1c1cnc2cnc3[nH]ccc3n12 [Compound 1, (3S,4R)-3-ethyl-4-(3H-imidazo[1,2-a]pyrrolo[2,3-e]pyrazin-8-yl)-N-(2,2,2-trifluoroethyl) pyrrolidine-1-carboxamide]",3.3 ± 0.4 h,,,
"CC[C@@H]1CN(C(=O)NCC(F)(F)F)C[C@@H]1c1cnc2cnc3[nH]ccc3n12 [upadacitinib, (3S,4R)-3-ETHYL-4-(3H-IMIDAZO[1,2-a]PYRROLO[2,3-e]-PYRAZIN-8-YL)-N-(2,2,2-TRIFLUOROETHYL)PYRROLIDINE-1-CARBOXAMIDE]",,~2 h,approximately 3 hours,good solubility at low pH
